Tests used:
androgen receptor (AR) = molecular target: T1, androgen receptor (AR) (Mus musculus, UniProt P19091); test: Androgen receptor agonistic and antagonistic activity, PRE-tk-luciferase reporter in L929 cells; assay type: cell-based
T1 construct: in the L929 cells which express the AR but not the PR; endogenous in cells; host or cells: L929 cells
T1 sequence (P19091 1-899): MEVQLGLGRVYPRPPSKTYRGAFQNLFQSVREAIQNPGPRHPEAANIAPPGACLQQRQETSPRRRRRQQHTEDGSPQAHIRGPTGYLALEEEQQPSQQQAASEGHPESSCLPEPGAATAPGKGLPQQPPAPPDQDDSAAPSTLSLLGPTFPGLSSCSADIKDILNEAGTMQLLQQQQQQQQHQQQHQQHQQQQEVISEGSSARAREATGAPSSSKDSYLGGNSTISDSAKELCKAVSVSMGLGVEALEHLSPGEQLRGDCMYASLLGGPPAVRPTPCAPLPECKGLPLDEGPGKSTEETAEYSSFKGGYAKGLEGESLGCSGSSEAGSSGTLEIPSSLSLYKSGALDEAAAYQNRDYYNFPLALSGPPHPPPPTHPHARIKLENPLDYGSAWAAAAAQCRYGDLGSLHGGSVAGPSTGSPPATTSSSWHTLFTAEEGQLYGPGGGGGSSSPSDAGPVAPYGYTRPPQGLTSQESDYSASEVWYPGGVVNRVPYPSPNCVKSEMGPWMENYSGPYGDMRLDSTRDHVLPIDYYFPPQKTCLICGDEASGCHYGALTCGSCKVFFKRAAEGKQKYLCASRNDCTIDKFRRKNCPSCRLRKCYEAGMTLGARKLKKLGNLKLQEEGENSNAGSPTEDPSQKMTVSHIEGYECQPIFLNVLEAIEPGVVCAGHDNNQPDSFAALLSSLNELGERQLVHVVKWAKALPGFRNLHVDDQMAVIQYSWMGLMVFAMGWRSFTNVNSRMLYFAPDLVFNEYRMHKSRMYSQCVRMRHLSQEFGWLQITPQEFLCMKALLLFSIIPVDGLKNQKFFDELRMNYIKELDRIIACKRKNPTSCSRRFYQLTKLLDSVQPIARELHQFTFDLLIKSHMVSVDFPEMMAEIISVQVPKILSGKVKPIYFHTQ
Method: The androgen receptor (AR) agonistic and antagonistic activity of the compositions of the invention in the L929 cells which express the AR but not the PR was evaluated as described in Zhang et al., Steroids, 65(10–11): 637–643 (October–November 2000).
Cells were plated in 96-well plates at 25,000 cells/well in DMEM (BioWhittaker) with 10% (v/v) fetal bovine serum (FBS). The next day, cells were infected with the adenovirus PRE-tk-luciferase reporter construct (2×10^9 pfu/ml particles) and kept in DMEM containing 10% charcoal stripped FBS for an additional 24 hours. […] To test the anti-androgenic activity, cells were co-treated with 3 nM DHT. Luciferase activity was measured 24 hours following the treatment.

acne vulgaris = test: Treatment of acne in a human patient, oral tablet daily; assay type: in vivo; conditions: about 20 mg tablet orally daily
Method: A human patient having acne vulgaris is treated according to the present invention. Specifically, 5-(5-Cyano-1-methyl-1H-pyrrol-2-yl)spiro[cyclohexane-1,3′-[3H]indol]-2′-ylidenecyanamide is orally delivered to the patient daily. Delivery is in the form of a tablet formulated to contain about 20 mg of 5′-(5-Cyano-1-methyl-1H-pyrrol-2-yl)spiro[cyclohexane-1,3′-[3H]indol]-2′-ylidenecyanamide.

eczema = test: Conditioning the skin of a human patient with severe eczema; assay type: in vivo; conditions: about 50 mg daily
Method: A human patient having a severe form of eczema is treated according to the present invention. Specifically, about 50 mg of 5′-(5-Cyano-1-methyl-1H-pyrrol-2-yl)spiro[cyclohexane-1,3′-[3H]indol]-2′-ylidenecyanamide is delivered to the patient daily.

Cn1c(C#N)ccc1-c1ccc2c(c1)C1(CCCCC1)C(=NC#N)N2 [5′-(5-Cyano-1-methyl-1H-pyrrol-2-yl)spiro[cyclohexane-1,3′-[3H]indol]-2′-ylidenecyanamide]
agonistic activity (androgen receptor (AR); at the maximum concentration tested (10 nM)): only marginal agonistic activity | IC50 (androgen receptor (AR); co-treated with 3 nM DHT, luciferase activity 24 hours after treatment, read-out: IC50 (anti-androgenic activity)): 313 nM | antagonistic activity (androgen receptor (AR); nine point dose response, co-treated with 3 nM DHT): significant antagonistic activity | acne vulgaris (acne vulgaris; after about 24 weeks): improvement in the acne vulgaris is observed | presence of lesions caused by acne vulgaris (acne vulgaris; forty-five to sixty days after the treatment): a decrease in the presence of lesions caused by acne vulgaris is noticed | eczema (eczema; after about 12 weeks): improvement in the eczema is observed | dryness of the skin (eczema; thirty days after the treatment): a decrease in the dryness affected to the skin is noticed
